{"source": "patent US11547761B1", "about": "“Antibody adjuvant conjugates” (The Board of Trustees of the Leland Stanford Junior …, priority 2016, dated 2023)", "key": {"[1]": {"target": "T1, recombinant human CD64 protein (Homo sapiens, UniProt P12314)", "T1 construct": "purchased R&D Systems", "T1 sequence (P12314 16-374)": "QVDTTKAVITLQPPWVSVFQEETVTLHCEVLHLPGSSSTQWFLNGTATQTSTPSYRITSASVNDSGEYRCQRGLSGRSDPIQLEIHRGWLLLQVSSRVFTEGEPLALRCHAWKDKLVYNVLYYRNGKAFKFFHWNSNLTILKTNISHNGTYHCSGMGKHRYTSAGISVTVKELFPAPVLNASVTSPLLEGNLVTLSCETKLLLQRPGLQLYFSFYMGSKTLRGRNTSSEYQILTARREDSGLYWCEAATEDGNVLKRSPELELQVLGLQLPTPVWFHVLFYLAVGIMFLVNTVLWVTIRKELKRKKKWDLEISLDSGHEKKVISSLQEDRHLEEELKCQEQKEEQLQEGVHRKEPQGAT", "test": "ELISA binding to CD64", "conditions": "titration", "experimental": "Maxysorp ELISA plates were coated overnight with 1.5 ug/ml recombinant human CD64 protein (R&D Systems). Plates were blocked with PBS containing 1% BSA, and incubated with a titration of Rituximab or Rituximab immunoconjugates (Rituximab BB-01). Bound antibodies were detected with Peroxidase conjugated AffiniPure F(ab′)2 Fragment Goat Anti-Human IgG (Jackson) using TMB color development and absorbance at 450 nm was measured after stopping the reaction."}, "[2]": {"target": "protein A (Staphylococcus aureus, UniProt P38507)", "conditions": "50 ug/ml in PBS, overnight, SDS-PAGE of beads and supernatants", "experimental": "Beads were pelleted by centrifugation, supernatant was removed, and residual liquid was removed from the beads using a fine pipette tip. Non-reducing Laemmli sample buffer (100 ul) was added to the beads. Beads and supernatants were heated to 90° C. for 5 minutes and equal fractions were analyzed by SDS-PAGE (4-12% NUPAGE gel, MOPS buffer) followed by staining with Coomassie (GelCode™ Blue, ThermoFisher). Molecular weight standard is SeeBlue® Plus 2 marker (ThermoFisher LC5925)."}, "[3]": {"test_system": "human APCs (myeloid cells)", "test": "Cytokine secretion from human APCs / myeloid cells (cell free supernatants)", "assay_type": "cell-based", "conditions": "18 hours", "experimental": "After 18 hours, cell free supernatants were analyzed for cytokine secretion via cytokine bead arrays; n=3. P-values≤0.05 depicted by *, P-values≤0.01 depicted by **, P-values≤0.001 depicted by ***, P-values≤0.0001 depicted by ****.\n2×10^5 APCs were incubated with or without 6.5×10^5 autologous or allogeneic CFSE-labeled tumor cells in 96-well plates (Corning) containing IMDM medium (Gibco) supplemented with 10% fetal bovine serum, 100 U/mL penicillin, 100 μg/mL streptomycin, 2 mM L-glutamine, sodium pyruvate, non-essential amino acids, 50 μM 2-ME and, where indicated, various concentrations of anti-tumor antibody and the indicated adjuvants. […]\nWhile the expression of T cell stimulatory molecules such as CD40, CD86 and HLA-DR is necessary for effective T cell activation, APCs also influence the nature of the ensuing immune response through the secretion of cytokines. Therefore, the capacity of immunoconjugates to elicit cytokine secretion in human APCs following stimulation was investigated as described above.\nThe capacity of these immunoconjugates to elicit cytokine secretion in human APCs following stimulation was investigated as described in Example 3 above.\n2×10^5 APCs were incubated with or without 6.5×10^5 allogeneic CFSE-labeled tumor cells in 96-well plates (Corning) containing IMDM medium (Gibco) supplemented with 10% fetal bovine serum, 100 U/mL penicillin, 100 μg/mL streptomycin, 2 mM L-glutamine, sodium pyruvate, non-essential amino acids and, where indicated, various concentrations of unconjugated CD20 antibody, and immunoconjugates of the invention were prepared according to the examples above. […]"}, "[4]": {"test_system": "human APCs (myeloid cells)", "test": "APC-tumor co-culture / myeloid cell stimulation, surface markers by flow cytometry", "assay_type": "cell-based", "conditions": "18 hours of stimulation", "description": "(§1) Human antigen presenting cells (APCs) were negatively selected from human peripheral blood mononuclear cells obtained from healthy blood donors (Stanford Blood Center) by density gradient centrifugation using a RosetteSep Human Monocyte Enrichment Cocktail (Stem Cell Technologies) containing monoclonal antibodies against CD2, CD3, CD8, CD19, CD56, CD66b and CD235a. Immature APCs were subsequently purified to >97% purity via negative selection using an EasySep Human Monocyte Enrichment Kit without CD16 depletion containing monoclonal antibodies against CD2, CD3, CD19, CD20, CD56, CD66b, CD123 and CD235a.\nTumor cells were resuspended in PBS with 0.1% fetal bovine serum (FBS) at 1 to 10×10^6 cells/mL. Cells were subsequently incubated with 2 μM CFSE to yield a final concentration of 1 μM. The reaction was ended after 2 minutes via the addition of 10 mL complete medium with 10% FBS and washed once with complete medium. Cells were either fixed in 2% paraformaldehyde and washed three times with PBS or left unfixed prior to freezing the cells in 10% DMSO, 20% FBS and 70% medium.\n(§2) 2×10^5 APCs were incubated with or without 6.5×10^5 autologous or allogeneic CFSE-labeled tumor cells in 96-well plates (Corning) containing IMDM medium (Gibco) supplemented with 10% fetal bovine serum, 100 U/mL penicillin, 100 μg/mL streptomycin, 2 mM L-glutamine, sodium pyruvate, non-essential amino acids, 50 μM 2-ME and, where indicated, various concentrations of anti-tumor antibody and the indicated adjuvants. Cells and cell-free supernatants were analyzed after 18 hours via flow cytometry.\nas §1, with “[…]” for “CD2, CD3, CD8, CD19, CD56, CD66b”, “[…].” for “CD235a.”, “CD14, CD16, CD40, CD86, CD123,” for “CD2, CD3, CD19, CD20, CD56, CD66b, CD123”\nas §2, with “antibody.” for “anti-tumor antibody and the indicated adjuvants.”\n2×10^5 APCs were incubated with or without 6.5×10^5 allogeneic CFSE-labeled tumor cells in 96-well plates (Corning) containing IMDM medium (Gibco) supplemented with 10% fetal bovine serum, 100 U/mL penicillin, 100 μg/mL streptomycin, 2 mM L-glutamine, sodium pyruvate, non-essential amino acids and, where indicated, various concentrations of unconjugated CD20 antibody, and immunoconjugates of the invention were prepared according to the examples above. Cells and cell-free supernatants were analyzed after 18 hours via flow cytometry or ELISA."}}}
{"substance": "Rituximab [reference compound]", "values": [{"measurement": "binding to CD64", "setting": "[1]", "value": "comparable binding to CD64"}, {"measurement": "binding to protein A", "setting": "[2]", "value": "bind to protein A"}, {"measurement": "cytokine secretion (overall)", "setting": "[3]", "value": "do not"}, {"measurement": "CD86 upregulation on myeloid cells", "setting": "[4]; compared with the corresponding unconjugated antibody unless the value names another comparator", "value": "the control does not"}, {"measurement": "APC / myeloid / dendritic cell activation (overall)", "setting": "[4]; listed as unconjugated CD20 antibody", "value": "do not"}]}
